Test [1] concerns CCRF-CEM. As to the kind of experiment: CellTiter-Glo luminescent cell viability assay (ATP quantification), CCRF-CEM. The test is classed as cell-based. The settings on record: acute lymphoblastic leukemia cells, 72 h treatment, viable cells by ATP luminescence. As to the method:
(§1) Influence of the test compounds on viability (proliferation) of cell lines used was investigated in concentration range 0-100 μmol·l^−1.
Suspension cell line CCRF-CEM is a permanent in vitro culture of acute lymphoblastic leukemia. CCRF-CEM cell line was cultivated in RPMI 1640 medium (Sigma-Aldrich, cat. no. R8758) with addition of 2 mmol·l^−1 glutamine (Invitrogen, cat. no. 35050-038), 10% fetal bovine serum (FBS, Sigma-Aldrich, cat. no. F9665), 100 IU/ml peniciline, 100 μg/ml streptomycine (Sigma-Aldrich, cat. no. P0781). Passaging was performed 2-3× a week. Population doubling time of CCRF-CEM cell line was 20 h under the cultivation conditions used.
(§2) In order to test the sensitivity of the cell lines towards the studied helquats, cytotoxity test for cell viability assessment based on ATP quantification in cell lysates was used (CellTiter-Glo® Luminescent Cell Viability Assay, Promega, cat. no. G7571). In this test, ATP in cell lysates is detected using luciferase reaction. Luminescence intensity correlates with the ATP level and thus with quantity of metabolically active (viable) cells. IC50 value serves as the output, that is the concentration of the test compound which leads to 50% reduction in number of viable cells as compared to control, untreated population. To this end, IC50 value reflects efficiency of the test compound with regard to the given cell line.
(§3) Cells in the exponential growth phase were seeded into a 96-well microtiter plate were plated at 3000 cells per well. Each well contained 90 μl of cell suspension. The next day, 10 μl of 10× concentrated test compound solutions were added. The effect of helquats was investigated in concentration range 1 to 100 μmol·l^−1 (e.g. 1; 2.5; 5; 7.5; 10; 15; 25; 50 and 100 μmol·l^−1). Apart from the section containing the concentration series of the test compound, each well contained 2 control columns, the first with pure medium (so called blank) and the second with cells in medium without the test compounds (control). Into wells containing controls and blanks, volume of solvent (water) equal to the volume of added compound solutions was added. After 72 h of incubation with the test compounds viability was determined according to the manufacturer's instructions. In short: microtiter well plate was left 30 min to reach the room temperature after it has been removed from the incubator. Then, into each well, 100 μl of the prepared detection agent was added. Next, the well plate was shaken for 2 min to complete the full lysis. Next, after the well had been left in the dark for 15 min, the luminescence was measured in each well using luminometer (Tecan Genios, Austria).
(§4) IC50 value represents concentration of the test compound, which leads to 50% reduction of viable cells (inhibition of cell growth) after 72 h of the treatment. Each helquat concentration was tested in triplicates in a IC50 quantification and at least 3 independent IC50 quantification experiments were performed. IC50 values over 100 μmol·l^−1 were obtained by extrapolation of data measured in concentration range 0-100 μmol·l^−1 for the given helquat.

For test [2], the system named is MOLT-4. As to the kind of experiment: CellTiter-Glo luminescent cell viability assay (ATP quantification), MOLT-4. Format: cell-based. Particulars: acute lymfoblastic leukemia cells, 72 h treatment, viable cells by ATP luminescence. As to the method:
as §1
Suspension cell line MOLT-4 is a permanent in vitro culture of acute lymfoblastic leukemia. Linie MOLT-4 cell line was cultivated in RPMI 1640 medium (Sigma-Aldrich, see above) with addition of 2 mmol glutamine (Invitrogen, see above), 10% fetal bovine serum (FBS, Sigma-Aldrich, see above), 100 IU/ml peniciline, 100 μg/ml streptomycine (Sigma-Aldrich, see above). Passaging was performed 2-3× a week. Population doubling time of […] cell line was 25 h under the cultivation conditions used.
as §2, §3, §4
(In general: In ATP-based viability assays light output follows the ATP content of the culture.)

Test [3] concerns HeLa. In words: CellTiter-Glo luminescent cell viability assay (ATP quantification), HeLa. The test is classed as cell-based. Particulars: cervical cancer cells, 72 h treatment, viable cells by ATP luminescence. The protocol:
as §1
Adherent cell line HeLa is a permanent in vitro culture derived from cervical cancer. HeLa cell line was cultivated in RPMI 1640 medium (Dutch modification) (Sigma-Aldrich, cat. no. R7638) with addition of 2 mmol·l^−1 glutamine (Invitrogen, see above), 10% fetal bovine serum (FBS, Sigma-Aldrich, see above), 100 IU/ml peniciline, 100 μg/ml streptomycine (Sigma-Aldrich, see above). Passaging was performed twice a week. After washing of cells with sterile PBS the cells were released by 0.25% trypsin/EDTA (Sigma-Aldrich, cat. no. T4049) at 37° C. for 2 minutes. The trypsin was inactivated by addition of 2 volumes of complete medium, cells were then centrifuged (250×g, 5 min), the cell pellet was resuspended, and transferred in the amount needed into a new cultivation bottle with fresh medium. Population doubling time of […] cell line was 25 h under the cultivation conditions used.
as §2, §3, §4

Test [4] deals with HUVEC. As to the kind of experiment: CellTiter-Glo luminescent cell viability assay (ATP quantification), HUVEC normal cells. Format: cell-based, human. Particulars: 72 h treatment. As to the method: as §1
Normal human endothelial cells from umbilical vein are adherent cells cultivated in plastic Petri dishes coated with collagen I. Into the cultivation medium (E-STIM™; BD Biosciences, cat. co. 355054) already containing 2% FBS (fetal bovine serum), hydrocortisone and heparin the following two further ingredients were added: epidermal growth factor (EGF, 5 μg) and mixture of factors facilitating growth of endothelial cells (ECGS, 100 mg). […] The cells were passaged after reaching 90% confluency by dissociation using 0.25% solution of trypsin/EDTA (1 ml; 3 min; 37° C.). After that 5 ml of complete cultivation medium E-STIM™ was added and the cells were centrifuged (180×g, 7 min), the pellet was resuspended, and transferred in the amount needed into a new Petri dish with fresh medium. The cells were used in experiments between the 3rd and the 8th passage after defreezing. Population doubling time of HUVEC cell line was 38 h under the cultivation conditions used.
as §2, §3, §4

Test [5] concerns NHDF-Ad. In words: CellTiter-Glo luminescent cell viability assay (ATP quantification), NHDF-Ad normal cells. The test is classed as cell-based. The settings on record: normal human dermal fibroblasts, 72 h treatment.
From the text: as §1
Normal human dermal fibroblasts were cultivated without antibiotics in basal medium for fibroblasts (ATCC/LGC Standards, cat. no. PCS-201-030) with added “Fibroblast Growth Kit-Low serum” (ATCC/LGC Standards, cat. no. PCS-201-041) containing 2% FBS, L-glutamine, hydrocortisone, ascorbic acid, rh FGF beta, rh insulin. When 90% confluency was reached the fibroblasts were washed with sterile PBS (5 ml) and dissociated by addition of 0.25% solution of trypsin/EDTA (2 ml; 2 min; 37° C.). After that 5 ml of cultivation medium for fibroblasts was added and the cells were centrifuged (180×g, 7 min), the cell pellet was resuspended, and transferred in the amount needed into a new cultivation bottle with fresh medium. The same cell release procedure was applied when the cells were to be used in experiments. The cells were used in experiments between the 3rd and the 15th passage after defreeezing. Population doubling time of NHDF-Ad cell line was 33 h under the cultivation conditions used.
as §2, §3, §4

In test [6] the test system is LoVo. In words: CellTiter-Glo luminescent cell viability assay (ATP quantification), LoVo. Format: cell-based. The settings on record: Homo sapiens, LoVo, colorectal carcinoma cells, 72 h treatment. As to the method: as §1
Adherent cell line LoVo is a permanent in vitro culture derived from tissue of a patient with colorectal carcinoma. LoVo cell line was cultivated in DMEM medium (Sigma-Aldrich, cat. no. D8437) with addition of 2 mmol·l^−1 glutamine (Invitrogen, see above), 10% fetal bovine serum (FBS, Sigma-Aldrich, see above), 100 IU/ml peniciline, 100 μg/ml streptomycine (Sigma-Aldrich, see above). Passaging was performed twice a week. After washing of cells with sterile PBS, the cells were released by 0.25% trypsin/EDTA (Sigma-Aldrich, see above) at 37° C. for 2 minutes. The trypsin was inactivated by addition of 2 volumes of complete medium, cells were then centrifuged (250×g, 5 min), resuspended, and transferred in the amount needed into a new cultivation bottle with fresh medium. Population doubling time of LoVo cell line was 39 h under the cultivation conditions used.
as §2, §3, §4

Where [7] appears, read: HUVEC, normal human endothelial cells, numeric bound, values over 100 obtained by extrapolation of data measured at 0-100 μmol·l−1.
Setting [8] is: Fibroblast, viable cells by ATP luminescence, class symbols.
[9] abbreviates: viable cells by ATP luminescence, class symbols.
Where [10] appears, read: HUVEC, normal human endothelial cells from umbilical vein, viable cells by ATP luminescence, class symbols.
Where [11] appears, read: numeric bound, values over 100 obtained by extrapolation of data measured at 0-100 μmol·l−1.
The mark [12] stands for this setting: Fibroblast, numeric bound, values over 100 obtained by extrapolation of data measured at 0-100 μmol·l−1.

One may read the IC50 as the midpoint of a concentration-inhibition curve. For the compound `Cc1c(C)c2c(c3c1CC[n+]1ccc(/C=C/c4ccc(N(C)C)cc4)cc1-3)-c1c3ccccc3cc[n+]1CC2` (racemic) [(rac)-1, (rac)-(E)-13-(4-(dimethylamino)styryl)-6,7-dimethyl-4,5,8,9-tetrahydroiso-quinolino[1,2-a]pyrido[1,2-k][2,9]phenanthroline-3,10-diium trifluoromethanesulfonate], the IC50 in test [1] (Homo sapiens, CCRF-CEM) is 11 to 50 µM; in test [2] (Homo sapiens, MOLT-4), 11 to 50 µM; in test [3] (Homo sapiens, HeLa) it was 11 to 50 µM; in test [4] (setting [7]), greater than 150 µM; in test [5] (setting [8]), 51 to 150 µM.
Regarding `C(=C\c1cc[n+]2c(c1)-c1c(ccc3c1-c1c4ccccc4cc[n+]1CC3)CC2)/c1cc2c3c(c1)CCCN3CCC2` (racemic) [(rac)-20, (rac)-(E)-13-(2-(1,2,3,5,6,7-hexahydropyrido[3,2,1-ij]quinolin-9-yl)vinyl)-4,5,8,9-tetrahydroisoquinolino[2,1-k]pyrido[2,1-a][2,9]phenanthroline-3,10-diium trifluoromethanesulfonate], the IC50 in test [1] (Homo sapiens, CCRF-CEM) lay within 11 to 50 µM; in test [2] (Homo sapiens, MOLT-4), 11 to 50 µM; in test [3] (Homo sapiens, HeLa), 11 to 50 µM; in test [6] (setting [9]), 51 to 150 µM; in test [4] (setting [10]), 51 to 150 µM; in test [5] (setting [8]) it was 51 to 150 µM.
As for `CN(C)c1ccc(/C=C/c2cc[n+]3c(c2)-c2c(ccc4c2-c2cccc[n+]2CCC4)CCC3)cc1` (racemic) [(rac)-35, (rac)-(E)-2-(4-(dimethylamino)styryl)-6,7,8,11,12,13-hexahydrodipyrido[1,2-a:1′,2′-a′]benzo[2,1-c:3,4-c′]bisazepinediium trifluoromethanesulfonate], the IC50 was 51 to 150 µM in test [1] (Homo sapiens, CCRF-CEM); 51 to 150 µM in test [2] (Homo sapiens, MOLT-4); 51 to 150 µM in test [3] (Homo sapiens, HeLa); greater than 150 µM in test [6] (setting [11]); greater than 150 µM in test [4] (setting [7]); greater than 150 µM in test [5] (setting [12]).
On to `CN(C)c1ccc(/C=C/c2cccc3[n+]2CCCc2ccc4c(c2-3)-c2cccc(/C=C/c3ccc(N(C)C)cc3)[n+]2CCC4)cc1` (racemic) [(rac)-41, (rac)-4,15-bis((E)-4-(dimethylamino)styryl)-6,7,8,11,12,13-hexahydro-dipyrido[1,2-a:1′,2′-a′]benzo[2,1-c:3,4-c′]bisazepinediium trifluoromethanesulfonate], for which the IC50 fell in the range of 11 to 50 µM in test [1] (Homo sapiens, CCRF-CEM); 11 to 50 µM in test [2] (Homo sapiens, MOLT-4); 11 to 50 µM in test [3] (Homo sapiens, HeLa); 11 to 50 µM in test [6] (setting [9]); 51 to 150 µM in test [4] (setting [10]); 51 to 150 µM in test [5] (setting [8]).
For `Cc1c(C)c2c(c3c1CC[n+]1ccc(/C=C/c4ccc(N(C)C)cc4)cc1-3)-c1c3ccccc3cc[n+]1CC2` [(P)-1, (P)-(E)-13-(4-(dimethylamino)styryl)-6,7-dimethyl-4,5,8,9-tetrahydroiso-quinolino[1,2-a]pyrido[1,2-k][2,9]phenanthroline-3,10-diium trifluoromethanesulfonate], the IC50 in test [1] is 11 to 50 µM; in test [2], 11 to 50 µM; in test [3], 11 to 50 µM; in test [4] (normal human endothelial cells, numeric bound, values over 100 obtained by extrapolation of data measured at 0-100 μmol·l−1) it was greater than 150 µM; in test [5] (setting [9]), 51 to 150 µM.
As for `CN(C)c1ccc(/C=C/C=C/c2cc[n+]3c(c2)-c2c(ccc4c2-c2cccc[n+]2CC4)CC3)cc1` [compound 30, 2-((1E,3E)-4-(4-(dimethylamino)phenyl)buta-1,3-dien-1-yl)-6,7,10,11-tetrahydrodipyrido[2,1-a:1′,2′-k][2,9]phenanthroline-5,12-diium trifluoromethanesulfonate], the IC50 in test [1] (Homo sapiens, CCRF-CEM) is 51 to 150 µM; in test [2] (Homo sapiens, MOLT-4), 51 to 150 µM; in test [3] (Homo sapiens, HeLa), 51 to 150 µM; in test [6] (setting [11]) it was greater than 150 µM; in test [4] (setting [7]) it was greater than 150 µM; in test [5] (setting [12]) it was greater than 150 µM.

Source of the values: US9340543B2, “Helquat derivatives, preparation thereof, and use thereof as medicaments” (USTAV ORGANICKE CHEMIE A BIOCHEMIE AKADEMIE VED CR, V.V.I., priority 2013, dated 2016).
